Measured values reported in ChEMBL document CHEMBL2074491, “Transport of drugs across the hepatic sinusoidal membrane: sinusoidal drug influx and efflux in the liver” (Semin Liver Dis, 2000).

Key:
Rattus norvegicus = experiment: TP_TRANSPORTER: Northern blot in vivo, kidney of SD rat; format: functional, organism-based; settings: Sprague Dawley
[1] = target: T1, Solute carrier organic anion transporter family member 1A1 (Rattus norvegicus, UniProt P46720); experiment: TP_TRANSPORTER: transport activity; format: functional
T1 sequence (P46720 whole entry): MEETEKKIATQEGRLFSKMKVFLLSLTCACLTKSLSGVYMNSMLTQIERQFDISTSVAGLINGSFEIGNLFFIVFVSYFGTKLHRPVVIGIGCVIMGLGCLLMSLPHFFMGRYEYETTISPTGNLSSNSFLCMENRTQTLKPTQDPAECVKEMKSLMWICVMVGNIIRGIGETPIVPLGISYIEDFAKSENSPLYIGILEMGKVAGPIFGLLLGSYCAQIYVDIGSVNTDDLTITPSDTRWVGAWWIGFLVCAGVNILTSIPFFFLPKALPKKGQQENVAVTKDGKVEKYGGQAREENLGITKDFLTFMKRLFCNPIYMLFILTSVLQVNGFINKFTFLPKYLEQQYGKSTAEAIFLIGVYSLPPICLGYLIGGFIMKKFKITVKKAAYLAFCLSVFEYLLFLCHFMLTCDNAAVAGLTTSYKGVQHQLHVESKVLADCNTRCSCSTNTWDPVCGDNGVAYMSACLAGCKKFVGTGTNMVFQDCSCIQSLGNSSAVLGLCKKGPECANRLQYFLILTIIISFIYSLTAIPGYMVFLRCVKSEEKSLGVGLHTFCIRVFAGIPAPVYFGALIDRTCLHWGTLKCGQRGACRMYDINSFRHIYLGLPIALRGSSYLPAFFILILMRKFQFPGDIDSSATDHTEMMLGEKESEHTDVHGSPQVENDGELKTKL

Row | SMILES | Activity (Rattus norvegicus) | Activity [1]
1 | C[C@]12CC[C@@H]3c4ccc(O)cc4CC[C@H]3[C@@H]1CC[C@@H]2O | is not a substrate [-] | 
2 | CCCCC[C@H](O)/C=C/[C@@H]1[C@@H](C/C=C\CCCC(=O)O)[C@@H](O)C[C@H]1O [DINOPROST] |  | is not a substrate [-]
